The text below walks through data of patent publication US20100297109A1, “METHODS FOR INHIBITING FASCIN” (Cornell University, priority 2007, published 2010).

Each structure is given as a SMILES string. Read-outs that look alike come from different tables or passages of the source.

Data set [1] concerns 4T1 cells. Put plainly: Boyden chamber cell migration assay, serum-induced migration of 4T1 cells. Format: cell-based, mouse. Conditions: FIGS. 1C and 1D. The protocol:
(§1) Cells. Mouse 4T1 mammary tumor cells and human MDA-MB-231 breast tumor cells were obtained from ATCC and have been described previously (Shan et al. 2005, Yang et al. 2005). 4T1 cells were cultured in RPMI 1640 medium supplemented with 10% FBS. MDA-MB-231 cells were cultured in DMEM supplemented with 10% FBS. Wound-healing assay. The wound-healing assay involves observing whether confluent cells can migrate across a scrape or wound in the cell layer. Cell migration assays were performed as described previously (Yang et al. 2005, Shan et al 2006). Tumor cells were plated in a 24-well plate coated with gelatin in standard media. […] Photographs several random regions of the filter facing the second chamber are taken and the number of cells counted to calculate the average number of cells that had transmigrated.
(§2) Boyden Chamber Cell Migration Assay. […] Three randomly selected fields (10× objectives) on the lower side of the insert were photographed, and the migrated cells were counted. The migration was expressed as either the average number of migrated cells in a field or as percentage of migrated cells in positive control. Percentage was calculated with the formula P=100×(M−Mnc)/Mpc, where P is the percentage of migrated cells, M is the number of migrated cells, Mnc is the number of migrated cells in negative controls, and Mpc is the number of migrated cells in positive controls.

The subject of data set [2] is human prostate tumor PC-3 cells. As to the kind of experiment: Cell migration assay, PC-3 cells. The data set is classed as cell-based.
The subject of data set [3] is mouse breast tumor 4T1 cells. As to the kind of experiment: Wound-healing assay, serum-induced migration of 4T1 cells. Format: cell-based. Conditions: 2 μM. As for the experimental part: as §1, with “media. After the cells grew to confluence, wounds were made in the confluent layer of cell using a sterile instrument such as a sterile pipette tip. The cells were washed with Phosphate Buffered Saline (PBS) or other sterile solutions and then the migration was induced by adding medium supplemented with 10% FBS. When the wound for the positive control closed, cells were fixed with 3.7% formaldehyde and stained with crystal violet staining solution.” for “media.”

A further data set concerns the target fascin (Homo sapiens, UniProt Q16658). As to the kind of experiment: GST-fascin and biotin-macroketone interaction. More on the design: made in house; host or cells: Escherichia coli BL21. Format: binding. Particulars: excess unlabeled compound. The protocol: Whole cell lysates from 4T1 mouse breast tumor cells were made. After preclearing the cell lysate with immobilized neutravidin biotin binding protein (Pierce, IL, USA) to remove biotin and avidin-binding proteins, the cell lysates were loaded to a column packed with the biotin-labeled macroketone (conjugated to neutravidin beads). A control column packed with free biotin and neutravidin beads was run side-by-side. After washing the column with 10 bed volumes of lysis buffer with 300 mM NaCl, the bound proteins were eluted with 0.1 M Glycine-HCl at pH 2.8 according to the manufacturer's instruction. […] Protein Expression and Purification. Recombinant GST-fascin fusion protein was produced in BL21 Escherichia coli. A 1-liter culture was grown to an A600 reading of 1.0 and then induced by addition of 0.3 mM isopropyl 1-thio-D-galactopyranoside (IPTG) for 12 hours at 25° C. Cells were flash frozen and then lysed by sonication in Tris-buffered saline. The supernatant was then incubated with glutathione-Sepharose for 2 h at 4° C. After extensive washing, GST-fascin was eluted and concentrated with a Centricon Plus-20 (Millipore). To remove the GST tag from the fusion protein, beads were incubated with thrombin overnight at 4° C. The supernatant was collected and concentrated. GST-fascin and Biotin-macroketone Interaction. […] Proteins associated with biotin-macroketone were precipitated with Untralink-immobilized NeutrAvidin agarose (Pierce). After extensive washing, bound proteins were eluted with SDS sample buffer and resolved by 10% SDS-PAGE. F-Actin Bundling Assay. Actin bundling activity was measured by low speed centrifugation assay and fluorescence microscopy. In low-speed centrifugation assay, monomeric rabbit G-actin was induced to polymerize at room temperature in F-actin buffer (20 mM Tris-HCl at pH 8, 1 mM ATP, 1 mM DTT, 2 mM MgCl2 and 100 mM KCl). Recombinant fascin proteins or control buffer were subsequently incubated with F-actin for 60 min at room temperature and centrifuged for 30 min at 10,000 g in an Eppendorf 5415D table-top centrifuge.

Data set [4] concerns human breast tumor MDA-MB 231 cells. As to the kind of experiment: Cell migration assay, MDA-MB-231 cells. Format: cell-based. The protocol:
as §1, §2

For data set [5], the system named is mouse embryonic fibroblast (MEF) cells. Put plainly: Wound-healing assay, serum-induced migration of MEF cells. Format: cell-based. Conditions: 200 μM.
Data set [6] has as its system 4T1 cells. Conditions: serum, Shan et al. 2005; cited from earlier work.
Data set [7] concerns human breast tumor MDA-MB-231 cells. As to the kind of experiment: Wound-healing assay, serum-induced migration of MDA-MB-231 cells. The data set is classed as cell-based. Particulars: 20 μM. As for the experimental part:
as §1, with “media. After the cells grew to confluence, wounds were made in the confluent layer of cell using a sterile instrument such as a sterile pipette tip. The cells were washed with Phosphate Buffered Saline (PBS) or other sterile solutions and then the migration was induced by adding medium supplemented with 10% FBS. When the wound for the positive control closed, cells were fixed with 3.7% formaldehyde and stained with crystal violet staining solution.” for “media.”

For data set [8], the system named is human colon tumor Lovo cells. Put plainly: Cell migration assay, Lovo cells. Format: cell-based.
Data set [9] concerns 4T1 cells. Particulars: read-out: IC50, 4T1 cell migration, cited from earlier work.
For data set [10] the following is noted: Gaul et al. 2004; cited from earlier work.
The test system of another data set is 4T1 tumor cells. Put plainly: 4T1 mouse mammary tumor model, spontaneous lung metastasis. The data set is classed as in vivo.
Data set [11] has as its system several types of tumor cells. Conditions: Nakae et al. 2000, cited from earlier work.
Setting [12] is: Njardarson et al. 2004, Gaul et al. 2004.

In the case of `COC1C=CCCCCC(=O)NCC(C)=CC(C)C1O` (centres unmarked) [macrolactam, Migrastatin lactam], the IC50 with 4T1 cells [1] came to 0.255 µM. Moreover, the inhibition of migration entry in data set [2], in data set [4] and in [8] was “inhibited the migration” in each case. Further, the “inhibition of serum-induced migration (wound-healing)” value in data set [3] and in data set [7] was “inhibited the migration” each time. Besides, at fascin, the “competition of binding of biotin-conjugated macroketone to fascin” value is “competed the binding”. Besides, the “effect on serum-induced migration (wound-healing)” value in data set [5] is recorded as “had no effect”. Besides, in the data set with 4T1 cells [6], the “formation of lamellipodia at the leading edge” value was “inhibited the formation of lamellipodia”.
As for `COC1C=CCCCCC(=O)OCC(C)=CC(C)C1O` (centres unmarked) [macrolactone], the IC50 in the data set on 4T1 cells [9] (macrolactone, Gaul et al. 2004) was 0.024 µM. Also, the “half-life in mouse plasma” value in data set [10] was < 5 min. Further, the “effect on 4T1 tumor metastasis” value in the data set with 4T1 tumor cells (20 mg/kg) is “statistically significant, it was much less than those of macroketone and macrolactam”.
On to `C=CC(OC)C(O[Si](C)(C)C(C)(C)C)C(C)C=C(C)CO` (centres unmarked) [migrastatin semi-core, reference compound], for which the IC50 in the data set with 4T1 cells [9] (setting [12]) was 40 µM. The “effect on 4T1 tumor metastasis” value in the data set with 4T1 tumor cells (10 and 20 mg/kg) is recorded as “did not significantly reduce”.
Regarding `CO[C@H]1/C=C/CC/C=C/C(=O)OC([C@H](C)C(=O)CCCC2CC(=O)NC(=O)C2)/C(C)=C\[C@@H](C)[C@@H]1O` (some centres unmarked) [migrastatin, Migrastatin], the IC50 with 4T1 cells [9] (setting [12]) was 29 µM. The “biosyntheses of DNA, RNA, and protein” value in data set [11] was “has no effect”. In addition, the “migration of tumor cells in vitro” value in data set [11] (high micromolar concentrations) is “inhibits the migration”.
